{"source": "ChEMBL document CHEMBL1201862", "about": "“PubChem BioAssay data set” (2004)", "key": {"[1]": {"assay": "NIH3T3 cell viability loss – ATP luminescence, mouse fibroblasts, counter-screen, dose response (AID 2010);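 note: cells exposed to compound for about 90 hours before reading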", "assay_type": "functional, cell-based"}, "[2]": {"assay": "Counterscreen for AddAB inhibitors: absorbance-based bacterial cell-based high throughput dose response assay for inhibitors of bacterial viability. [Related pubchem assays (depositor defined):AID435030, AID449728, AID449731, AID488942, AID488955, AID488956]", "assay_type": "functional"}, "Protein RecA": {"target": "T1, Protein RecA (Mycobacterium tuberculosis, UniProt P9WHJ3)", "T1 sequence (P9WHJ3 whole entry)": "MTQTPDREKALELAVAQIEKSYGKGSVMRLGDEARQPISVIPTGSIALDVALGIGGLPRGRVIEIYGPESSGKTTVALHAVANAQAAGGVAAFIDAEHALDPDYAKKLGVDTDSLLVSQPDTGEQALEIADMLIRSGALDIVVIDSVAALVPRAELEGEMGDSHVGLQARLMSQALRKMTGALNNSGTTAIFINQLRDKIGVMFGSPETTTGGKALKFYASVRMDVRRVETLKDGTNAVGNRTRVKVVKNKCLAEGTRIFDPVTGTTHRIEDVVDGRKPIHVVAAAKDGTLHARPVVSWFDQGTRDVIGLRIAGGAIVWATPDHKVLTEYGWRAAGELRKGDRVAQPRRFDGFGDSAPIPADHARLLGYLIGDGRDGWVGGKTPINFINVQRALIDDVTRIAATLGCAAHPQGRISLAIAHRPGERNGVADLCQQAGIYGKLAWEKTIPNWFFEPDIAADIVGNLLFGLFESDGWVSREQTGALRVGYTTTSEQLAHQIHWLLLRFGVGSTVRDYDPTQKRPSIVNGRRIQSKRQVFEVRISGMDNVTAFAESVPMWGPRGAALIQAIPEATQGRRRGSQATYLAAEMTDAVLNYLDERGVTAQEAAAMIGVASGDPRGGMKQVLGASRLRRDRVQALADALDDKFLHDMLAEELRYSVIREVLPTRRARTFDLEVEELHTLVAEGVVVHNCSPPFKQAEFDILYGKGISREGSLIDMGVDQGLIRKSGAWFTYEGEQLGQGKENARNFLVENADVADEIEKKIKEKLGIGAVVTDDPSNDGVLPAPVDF", "assay": "Fluorescence Cell-Free Homogeneous Dose Retest to Identify Inhibitors of RecA-Intein Splicing Activity. [Related pubchem assays (depositor defined):AID2097, AID2223, AID489010, AID492950]", "assay_type": "functional"}, "Estrogen receptor beta [3]": {"target": "T2, Estrogen receptor beta (Homo sapiens, UniProt Q92731)", "T2 sequence (Q92731 whole entry)": "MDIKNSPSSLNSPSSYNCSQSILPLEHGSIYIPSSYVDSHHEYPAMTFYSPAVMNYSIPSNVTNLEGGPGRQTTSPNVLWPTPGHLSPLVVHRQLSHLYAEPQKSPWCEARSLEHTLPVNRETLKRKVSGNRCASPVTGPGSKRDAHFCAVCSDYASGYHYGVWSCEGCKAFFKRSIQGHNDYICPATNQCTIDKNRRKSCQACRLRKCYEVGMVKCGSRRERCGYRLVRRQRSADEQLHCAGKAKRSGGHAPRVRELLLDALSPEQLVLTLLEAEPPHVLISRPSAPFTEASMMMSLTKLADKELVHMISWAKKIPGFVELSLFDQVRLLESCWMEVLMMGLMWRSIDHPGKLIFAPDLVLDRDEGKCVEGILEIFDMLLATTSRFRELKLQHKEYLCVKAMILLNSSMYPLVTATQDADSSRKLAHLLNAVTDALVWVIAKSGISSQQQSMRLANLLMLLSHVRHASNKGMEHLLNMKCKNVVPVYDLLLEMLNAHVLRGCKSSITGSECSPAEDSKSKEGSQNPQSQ", "assay": "blockers of SRC-3 recruitment to ERβ – biochemical, ELISA, streptavidin-HRP readout, orthogonal assay, confirmation (AID 1060)"}, "Caspase-3": {"target": "T3, Caspase-3 (Homo sapiens, UniProt P42574)", "T3 sequence (P42574 whole entry)": "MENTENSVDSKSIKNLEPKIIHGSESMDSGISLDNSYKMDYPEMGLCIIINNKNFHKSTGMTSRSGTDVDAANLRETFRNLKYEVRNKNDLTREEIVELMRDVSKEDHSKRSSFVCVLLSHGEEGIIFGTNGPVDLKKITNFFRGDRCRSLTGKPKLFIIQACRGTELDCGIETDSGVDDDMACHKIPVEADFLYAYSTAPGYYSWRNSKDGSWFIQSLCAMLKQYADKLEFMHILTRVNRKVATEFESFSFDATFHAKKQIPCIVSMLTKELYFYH", "assay_type": "functional"}, "[4]": {"target": "T4, Oxysterols receptor LXR-beta (Homo sapiens, UniProt P55055)", "T4 sequence (P55055 whole entry)": "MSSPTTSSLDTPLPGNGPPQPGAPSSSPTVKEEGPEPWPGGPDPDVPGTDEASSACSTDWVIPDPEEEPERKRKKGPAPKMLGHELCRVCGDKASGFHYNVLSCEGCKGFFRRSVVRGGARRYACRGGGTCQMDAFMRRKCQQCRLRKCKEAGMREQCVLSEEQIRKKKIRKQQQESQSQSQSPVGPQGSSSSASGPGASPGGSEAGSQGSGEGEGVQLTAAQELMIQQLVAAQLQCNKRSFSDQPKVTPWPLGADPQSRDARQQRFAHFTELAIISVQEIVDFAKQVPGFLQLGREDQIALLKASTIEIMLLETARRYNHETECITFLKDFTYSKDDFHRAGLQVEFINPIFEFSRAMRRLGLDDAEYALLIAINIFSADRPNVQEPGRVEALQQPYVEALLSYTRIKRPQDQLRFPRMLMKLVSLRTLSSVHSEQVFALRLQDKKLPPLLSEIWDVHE", "assay_type": "functional, cell-based"}, "HT-1080": {"system": "HT-1080", "assay": "HT1080 cell viability loss – fluorescence readout (AID 620)", "assay_type": "functional, cell-based", "conditions": "Homo sapiens"}, "Estrogen receptor beta [5]": {"target": "T2, Estrogen receptor beta"}, "[6]": {"target": "Serine/threonine-protein kinase TAO1 (Homo sapiens, UniProt Q7L7X3)", "assay_type": "functional"}, "[7]": {"target": "Vascular endothelial growth factor receptor 1 (Homo sapiens, UniProt P17948)", "assay_type": "functional"}, "[8]": {"target": "Dual specificity protein kinase CLK4 (Homo sapiens, UniProt Q9HAZ1)", "sequence (Q9HAZ1 whole entry)": "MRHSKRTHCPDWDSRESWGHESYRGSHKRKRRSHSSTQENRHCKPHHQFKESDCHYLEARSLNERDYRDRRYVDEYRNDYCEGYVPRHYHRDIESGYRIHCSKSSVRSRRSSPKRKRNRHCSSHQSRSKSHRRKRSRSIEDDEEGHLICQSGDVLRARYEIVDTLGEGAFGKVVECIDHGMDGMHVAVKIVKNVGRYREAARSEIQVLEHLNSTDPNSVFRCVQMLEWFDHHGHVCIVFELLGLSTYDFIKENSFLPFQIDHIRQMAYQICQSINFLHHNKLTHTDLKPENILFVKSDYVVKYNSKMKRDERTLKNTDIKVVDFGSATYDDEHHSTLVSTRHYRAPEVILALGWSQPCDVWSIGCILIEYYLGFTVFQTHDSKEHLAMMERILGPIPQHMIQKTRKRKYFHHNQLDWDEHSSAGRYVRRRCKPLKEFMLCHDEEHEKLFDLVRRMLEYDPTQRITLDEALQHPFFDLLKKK", "assay_type": "functional"}, "[9]": {"target": "Mitogen-activated protein kinase 14 (Homo sapiens, UniProt Q16539)", "sequence (Q16539 whole entry)": "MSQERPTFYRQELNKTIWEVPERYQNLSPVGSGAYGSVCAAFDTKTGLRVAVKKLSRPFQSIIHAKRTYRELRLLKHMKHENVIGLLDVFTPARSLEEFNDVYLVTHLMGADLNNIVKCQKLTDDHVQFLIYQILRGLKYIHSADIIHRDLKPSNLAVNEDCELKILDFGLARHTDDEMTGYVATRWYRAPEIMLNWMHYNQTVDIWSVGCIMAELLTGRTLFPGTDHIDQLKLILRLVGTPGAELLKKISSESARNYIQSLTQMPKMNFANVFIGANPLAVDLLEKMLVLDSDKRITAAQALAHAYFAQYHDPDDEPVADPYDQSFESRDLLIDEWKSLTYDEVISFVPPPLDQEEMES", "assay_type": "functional"}, "[10]": {"target": "G protein-coupled receptor kinase 5 (Homo sapiens, UniProt P34947)", "assay": "Navigating the Kinome. Panel member name: GPRK5", "assay_type": "functional"}, "[11]": {"target": "Fibroblast growth factor receptor 1 (Homo sapiens, UniProt P11362)", "assay_type": "functional"}, "[12]": {"target": "Dual specificity tyrosine-phosphorylation-regulated kinase 1B (Homo sapiens, UniProt Q9Y463)", "assay": "Navigating the Kinome. Panel member name: DYRK1B", "assay_type": "functional"}, "[13]": {"target": "cAMP-dependent protein kinase catalytic subunit alpha (Homo sapiens, UniProt P17612)", "assay_type": "functional"}, "[14]": {"target": "Dual specificity tyrosine-phosphorylation-regulated kinase 1A (Homo sapiens, UniProt Q13627)", "assay_type": "functional"}, "[15]": {"target": "Serine/threonine-protein kinase TBK1 (Homo sapiens, UniProt Q9UHD2)", "assay": "Navigating the Kinome. Panel member name: TBK1", "assay_type": "functional"}, "[16]": {"target": "Tyrosine-protein kinase JAK3 (Homo sapiens, UniProt P52333)", "sequence (P52333 whole entry)": "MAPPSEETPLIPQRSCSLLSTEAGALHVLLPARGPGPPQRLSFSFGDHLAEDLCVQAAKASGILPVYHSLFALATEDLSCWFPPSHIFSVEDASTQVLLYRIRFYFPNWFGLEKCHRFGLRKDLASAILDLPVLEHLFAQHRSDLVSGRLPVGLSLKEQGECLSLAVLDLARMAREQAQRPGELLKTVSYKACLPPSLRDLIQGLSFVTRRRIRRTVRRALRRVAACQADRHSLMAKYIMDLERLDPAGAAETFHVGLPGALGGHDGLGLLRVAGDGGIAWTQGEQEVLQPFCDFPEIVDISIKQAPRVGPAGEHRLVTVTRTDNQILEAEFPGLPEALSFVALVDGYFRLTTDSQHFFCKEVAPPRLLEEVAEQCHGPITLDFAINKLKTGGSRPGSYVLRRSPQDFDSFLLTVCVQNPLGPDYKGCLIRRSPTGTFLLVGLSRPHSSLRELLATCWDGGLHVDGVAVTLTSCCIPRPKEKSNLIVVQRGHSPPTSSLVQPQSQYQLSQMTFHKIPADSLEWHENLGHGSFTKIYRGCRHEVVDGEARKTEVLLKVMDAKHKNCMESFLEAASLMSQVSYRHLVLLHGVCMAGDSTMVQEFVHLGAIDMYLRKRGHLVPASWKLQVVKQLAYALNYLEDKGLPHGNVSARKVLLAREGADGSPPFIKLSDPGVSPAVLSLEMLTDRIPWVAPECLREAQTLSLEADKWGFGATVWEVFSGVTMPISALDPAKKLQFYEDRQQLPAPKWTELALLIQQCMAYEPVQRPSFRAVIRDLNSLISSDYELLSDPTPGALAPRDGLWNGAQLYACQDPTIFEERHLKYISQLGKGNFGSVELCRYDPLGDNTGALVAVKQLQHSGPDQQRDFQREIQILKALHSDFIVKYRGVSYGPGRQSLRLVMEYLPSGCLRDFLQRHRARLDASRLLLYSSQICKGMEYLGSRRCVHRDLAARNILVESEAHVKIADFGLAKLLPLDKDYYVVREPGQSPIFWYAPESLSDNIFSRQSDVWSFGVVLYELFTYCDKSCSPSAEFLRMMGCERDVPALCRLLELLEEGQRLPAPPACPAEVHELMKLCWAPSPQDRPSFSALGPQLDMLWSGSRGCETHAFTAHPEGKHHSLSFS", "assay_type": "functional"}, "[17]": {"target": "Vascular endothelial growth factor receptor 2 (Homo sapiens, UniProt P35968)", "sequence (P35968 whole entry)": "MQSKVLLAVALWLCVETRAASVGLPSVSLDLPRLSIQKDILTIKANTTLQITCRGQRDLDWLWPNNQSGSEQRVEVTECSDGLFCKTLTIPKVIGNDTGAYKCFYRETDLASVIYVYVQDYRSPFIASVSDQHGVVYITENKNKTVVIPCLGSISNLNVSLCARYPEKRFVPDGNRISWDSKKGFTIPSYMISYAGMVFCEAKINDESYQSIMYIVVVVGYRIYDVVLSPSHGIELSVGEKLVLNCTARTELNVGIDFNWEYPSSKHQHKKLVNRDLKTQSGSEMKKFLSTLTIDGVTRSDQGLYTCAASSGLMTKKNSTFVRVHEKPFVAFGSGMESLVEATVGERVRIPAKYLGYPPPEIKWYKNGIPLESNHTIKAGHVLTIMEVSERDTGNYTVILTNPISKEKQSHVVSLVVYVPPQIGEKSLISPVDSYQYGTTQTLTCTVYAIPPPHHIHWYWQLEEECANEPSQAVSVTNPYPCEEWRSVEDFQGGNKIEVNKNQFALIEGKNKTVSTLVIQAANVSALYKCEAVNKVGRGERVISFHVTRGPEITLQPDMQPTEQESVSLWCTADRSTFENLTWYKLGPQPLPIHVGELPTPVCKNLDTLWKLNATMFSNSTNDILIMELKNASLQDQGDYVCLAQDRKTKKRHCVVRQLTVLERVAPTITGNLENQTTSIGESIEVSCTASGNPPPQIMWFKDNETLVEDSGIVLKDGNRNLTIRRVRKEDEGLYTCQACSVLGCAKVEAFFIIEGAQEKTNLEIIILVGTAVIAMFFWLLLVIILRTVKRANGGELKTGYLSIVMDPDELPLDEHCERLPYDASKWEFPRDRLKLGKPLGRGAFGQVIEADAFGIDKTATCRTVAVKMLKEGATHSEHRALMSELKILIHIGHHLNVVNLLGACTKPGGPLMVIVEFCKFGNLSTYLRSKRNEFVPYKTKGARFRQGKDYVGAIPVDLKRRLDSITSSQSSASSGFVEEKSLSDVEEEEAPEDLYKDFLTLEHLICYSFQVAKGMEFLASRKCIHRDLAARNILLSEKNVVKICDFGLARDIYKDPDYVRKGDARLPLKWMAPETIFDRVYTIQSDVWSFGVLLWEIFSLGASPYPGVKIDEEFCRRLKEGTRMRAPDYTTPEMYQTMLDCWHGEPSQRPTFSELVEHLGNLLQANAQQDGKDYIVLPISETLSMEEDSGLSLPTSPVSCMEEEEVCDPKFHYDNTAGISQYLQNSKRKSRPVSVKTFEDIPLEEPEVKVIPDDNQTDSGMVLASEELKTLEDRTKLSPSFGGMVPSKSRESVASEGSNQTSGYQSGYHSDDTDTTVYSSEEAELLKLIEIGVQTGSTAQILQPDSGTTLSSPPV", "assay_type": "functional"}, "[18]": {"target": "Platelet-derived growth factor receptor beta (Homo sapiens, UniProt P09619)", "sequence (P09619 whole entry)": "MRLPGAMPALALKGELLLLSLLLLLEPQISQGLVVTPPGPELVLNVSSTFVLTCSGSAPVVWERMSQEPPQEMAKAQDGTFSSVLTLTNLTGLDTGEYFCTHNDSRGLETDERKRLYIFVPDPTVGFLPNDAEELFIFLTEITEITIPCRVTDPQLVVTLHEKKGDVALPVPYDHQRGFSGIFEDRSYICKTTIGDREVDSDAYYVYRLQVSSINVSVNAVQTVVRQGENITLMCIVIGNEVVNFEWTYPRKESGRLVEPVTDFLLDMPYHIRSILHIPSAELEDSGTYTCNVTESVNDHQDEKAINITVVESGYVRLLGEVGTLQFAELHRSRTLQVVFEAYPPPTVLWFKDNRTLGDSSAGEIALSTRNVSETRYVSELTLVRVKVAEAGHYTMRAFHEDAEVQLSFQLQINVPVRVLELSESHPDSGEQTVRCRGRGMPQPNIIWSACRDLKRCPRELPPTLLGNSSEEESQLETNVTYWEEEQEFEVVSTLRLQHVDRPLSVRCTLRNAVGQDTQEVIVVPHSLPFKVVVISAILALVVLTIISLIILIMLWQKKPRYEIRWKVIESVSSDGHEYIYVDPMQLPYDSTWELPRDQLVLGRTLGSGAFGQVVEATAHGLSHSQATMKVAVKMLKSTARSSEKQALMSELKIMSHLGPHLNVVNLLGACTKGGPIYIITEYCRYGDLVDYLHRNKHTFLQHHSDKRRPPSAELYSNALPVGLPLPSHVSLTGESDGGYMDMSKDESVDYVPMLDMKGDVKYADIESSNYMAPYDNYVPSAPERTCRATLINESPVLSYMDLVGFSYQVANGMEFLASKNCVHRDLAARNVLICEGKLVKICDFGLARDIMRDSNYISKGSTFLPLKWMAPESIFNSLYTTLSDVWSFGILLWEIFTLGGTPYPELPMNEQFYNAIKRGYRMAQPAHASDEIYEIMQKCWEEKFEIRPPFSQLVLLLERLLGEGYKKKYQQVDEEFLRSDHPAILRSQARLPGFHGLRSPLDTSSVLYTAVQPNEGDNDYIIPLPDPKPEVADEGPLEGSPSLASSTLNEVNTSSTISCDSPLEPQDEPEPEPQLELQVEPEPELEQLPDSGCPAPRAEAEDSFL", "assay_type": "functional"}, "[19]": {"target": "Dual specificity mitogen-activated protein kinase kinase 1 (Homo sapiens, UniProt Q02750)", "assay": "Navigating the Kinome. Panel member name: MAP2K1", "assay_type": "functional"}, "[20]": {"target": "5'-AMP-activated protein kinase catalytic subunit alpha-1 (Homo sapiens, UniProt Q13131)", "assay_type": "functional"}}, "note": "Active and inactive are the calls of the source."}
{"smiles": "CN1CCN(C(c2ccc(C(F)(F)F)cc2)c2cc(Cl)c3cccnc3c2O)CC1", "note": "(centres undefined)", "values": [{"measurement": "EC50", "setting": "[1]", "result": "6.54 µM (active)"}, {"measurement": "IC50", "setting": "[2]", "result": "105 µM (inactive)"}, {"measurement": "EC50", "setting": "Protein RecA", "result": "0.932 µM (active)"}]}
{"smiles": "NC(=O)c1c(NC(=O)c2cc3ccccc3o2)sc2c1CCC2", "values": [{"measurement": "EC50", "setting": "cells", "result": "> 67.5 µM (inactive)"}, {"measurement": "IC50", "setting": "Estrogen receptor beta [3]", "result": "0.0552 µM (not active)"}, {"measurement": "IC50", "setting": "Caspase-3", "result": "15.1 µM (active)"}, {"measurement": "EC50", "setting": "[4]", "result": "> 67.5 µM (inactive)"}, {"measurement": "EC50", "setting": "HT-1080", "result": "> 50 µM (not active)"}, {"measurement": "IC50", "setting": "Estrogen receptor beta [5]", "result": "> 50 µM (not active)"}]}
{"smiles": "O=C(NC(CCO)c1ccccc1)c1ccc(-c2ccncc2)cc1", "note": "(centres undefined)", "values": [{"measurement": "Ki", "setting": "[6]", "result": "> 6.31 µM (inactive)"}, {"measurement": "Ki", "setting": "[7]", "result": "> 3.98 µM (inactive)"}, {"measurement": "Ki", "setting": "[8]", "result": "0.316 µM (active)"}, {"measurement": "Ki", "setting": "[9]", "result": "> 3.98 µM (inactive)"}, {"measurement": "Ki", "setting": "[10]", "result": "> 3.98 µM (inactive)"}, {"measurement": "Ki", "setting": "[11]", "result": "> 3.98 µM (inactive)"}, {"measurement": "Ki", "setting": "[12]", "result": "> 2.51 µM (inactive)"}, {"measurement": "Ki", "setting": "[13]", "result": "0.0316 µM (active)"}, {"measurement": "Ki", "setting": "[14]", "result": "> 2 µM (inactive)"}, {"measurement": "Ki", "setting": "[15]", "result": "> 3.16 µM (inactive)"}, {"measurement": "Ki", "setting": "[16]", "result": "> 5.01 µM (inactive)"}, {"measurement": "Ki", "setting": "[17]", "result": "> 2.51 µM (inactive)"}, {"measurement": "Ki", "setting": "[18]", "result": "> 2 µM (inactive)"}, {"measurement": "Ki", "setting": "[19]", "result": "> 3.16 µM (inactive)"}, {"measurement": "Ki", "setting": "[20]", "result": "> 3.16 µM (inactive)"}]}
